Patent publication US8906868B2, “Aminoglycoside derivatives” (Rempex Pharmaceuticals, Inc., priority 2010, dated 2014)
In brackets after ≈: the same amount, converted by molar mass. Where two headings read alike, the source gives them in different places.

Legend:
[1] = tested on: ACM1005 ATCC 19004; assay: MIC, broth microdilution; assay type: cell-based, Acinetobacter baumannii; conditions: Table 4; for MIC: Acinetobacter baumannii, ATCC19004, read-out: Compound MIC on Bacterial Strains: Acinetobacter baumannii ACM1005 ATCC 19004
Description: (§1) To compare microbiological activity of the test compounds, minimum inhibitory concentrations (MIC.s) were determined. Antibiotic MICs were obtained using the broth microdilution method according to Clinical and Laboratory Standards Institute (CLSI) approved guidelines (Methods for dilution antimicrobial susceptibility tests for bacteria that grow aerobically; approved standard—7th ed. CLSI document M7-A7. Clinical and Laboratory Standards Institute, Wayne, Pa., incorporated herein by reference in its entirety). Antibiotics were dissolved as specified by CLSI (Performance standards for antimicrobial susceptibility testing; Seventeenth informational supplement. CLSI document M100-S17. Clinical and Laboratory Standards Institute, Wayne, Pa., incorporated herein by reference in its entirety), and were serially diluted 2-fold in cation adjusted Mueller Hinton Broth (CaMHB) at 2× concentration. Bacterial inoculums were prepared in CaMHB by suspension of a colony from an agar plate that was prepared the previous day to obtain a final concentration of 5×10^5CFU/ml. The plates were incubated for 18 hours at 35° C. […] MIC.s were determined by reading the turbidity of plate wells using a SpectraMax Plus384 plate reader (Molecular Devices, Sunnyvale, Calif., USA) at 600 nm and were confirmed by visual inspection.

[2] = tested on: ACM1006 acc(6′)-Ib; assay: microbe, parasite or virus in culture; assay type: cell-based, Acinetobacter baumannii; conditions: Table 4; for MIC: Acinetobacter baumannii, read-out: Compound MIC on Bacterial Strains: Acinetobacter baumannii ACM1006 acc(6′)-Ib
Description: as §1

[3] = tested on: Acinetobacter baumannii (ATCC 19606); assay: MIC, broth microdilution; conditions: Acinetobacter baumannii, ATCC19606, read-out: Compound MIC on Bacterial Strains: A. baumannii ATCC 19606
[4] = tested on: Klebsiella pneumonia (ATCC 43816); assay: MIC, broth microdilution; conditions: Klebsiella pneumoniae, ATCC43816, read-out: Compound MIC on Bacterial Strains: K. pneumonia ATCC 43816
[5] = tested on: Escherichia coli (ATCC 25922); assay: MIC, broth microdilution; conditions: for MIC: Escherichia coli
[6] = tested on: Pseudomonas aeruginosa (ATCC 27853); assay: MIC, broth microdilution; conditions: Pseudomonas aeruginosa
[7] = tested on: Staphylococcus aureus (ATCC 29213); assay: MIC, broth microdilution; conditions: Staphylococcus aureus
[8] = tested on: ECM6007 aac(6′) + aph(2″); assay: microbe, parasite or virus in culture; assay type: cell-based, Escherichia coli; conditions: Table 4; for MIC: Escherichia coli, 18 h, read-out: Compound MIC on Bacterial Strains: Escherichia coli ECM6007 aac(6′) + aph(2″)
Description: as §1

[9] = tested on: EC1001 acc(6′)-Ib; assay: microbe, parasite or virus in culture; assay type: cell-based, Escherichia coli; conditions: Table 4; for MIC: Escherichia coli, read-out: Compound MIC on Bacterial Strains: Escherichia coli EC1001 acc(6′)-Ib
Description: as §1

[10] = tested on: ECM6006 aph(3′)-III; assay: microbe, parasite or virus in culture; assay type: cell-based, Escherichia coli; conditions: for MIC: Escherichia coli, read-out: Compound MIC on Bacterial Strains: ECM6006 aph(3′)-III
Description: as §1
(§2) Activity of the test compounds was determined using QC strains and strains with known aminoglycoside resistance mechanisms (TABLE 3). This specific panel contained strains expressing enzymes that covalently modify N2″, N3 and N3′ positions.

[11] = tested on: ECM6011 aph(3′)-I; assay: microbe, parasite or virus in culture; assay type: cell-based, Escherichia coli; conditions: for MIC: Escherichia coli, read-out: Compound MIC on Bacterial Strains: ECM6011 aph(3′)-I
Description: as §1, §2

[12] = tested on: ECM6010 ant(2″)-I; assay: microbe, parasite or virus in culture; assay type: cell-based, Escherichia coli; conditions: for MIC: Escherichia coli, read-out: Compound MIC on Bacterial Strains: ECM6010 ant(2″)-I
Description: as §1, §2

[13] = tested on: ECM6009 aac(3)-II; assay: microbe, parasite or virus in culture; assay type: cell-based, Escherichia coli; conditions: for MIC: Escherichia coli, read-out: Compound MIC on Bacterial Strains: ECM6009 aac(3)-II
Description: as §1, §2

[14] = tested on: ECM6003 rmtB; assay: microbe, parasite or virus in culture; assay type: cell-based, Escherichia coli; conditions: for MIC: Escherichia coli, read-out: Compound MIC on Bacterial Strains: ECM6003 rmtB
Description: as §1, §2
The panel also contained a strain expressing ribosomal RNA methylase, RmtB.

[15] = tested on: PAM3073 aac(6′)-I; assay: microbe, parasite or virus in culture; assay type: cell-based, Pseudomonas aeruginosa; conditions: Pseudomonas aeruginosa, Table 5; read-out: Compound MIC on Bacterial Strains: Pseudomonas aeruginosa PAM3073 aac(6′)-I
Description: as §1

[16] = tested on: PAM3072 aac(6′)-II; assay: microbe, parasite or virus in culture; assay type: cell-based, Pseudomonas aeruginosa; conditions: Pseudomonas aeruginosa, Table 5; read-out: Compound MIC on Bacterial Strains: Pseudomonas aeruginosa PAM3072 aac(6′)-II
Description: as §1

[17] = tested on: EC1002 aph(3′)-IV; assay: organism not typed; assay type: cell-based; conditions: for MIC: read-out: Compound MIC on Bacterial Strains: EC1002 aph(3′)-IV
Description: as §1, §2

[18] = ATCC25922, read-out: Compound MIC on Bacterial Strains: E. coli ATCC 25922
[19] = ATCC25922, read-out: Compound MIC on Bacterial Strains: Escherichia coli ECM6000 ATCC 25922
[20] = ATCC27853, read-out: Compound MIC on Bacterial Strains: P. aeruginosa ATCC 27853
[21] = ATCC29213, read-out: Compound MIC on Bacterial Strains: S. aureus ATCC 29213, QC strain, Table 2
[22] = ATCC25922, read-out: Compound MIC on Bacterial Strains: ECM6000 ATCC 25922
[23] = ATCC27853, read-out: Compound MIC on Bacterial Strains: Pseudomonas aeruginosa PAM3034 ATCC 27853
[24] = ATCC29213, read-out: Compound MIC on Bacterial Strains: Staphylococcus aureus SAM1000 ATCC 29213, Table 5

Row | Structure (SMILES) | MIC [1] [µg/mL] | MIC [3] [µg/mL] | MIC [4] [µg/mL] | MIC [5, 18] [µg/mL] | MIC [5, 19] [µg/mL] | MIC [6, 20] [µg/mL] | MIC [7, 21] [µg/mL] | MIC [8] [µg/mL] | MIC [9] [µg/mL] | MIC [10] [µg/mL] | MIC [11] [µg/mL] | MIC [12] [µg/mL] | MIC [13] [µg/mL] | MIC ([14]; Table 3) [µg/mL] | MIC [15] [µg/mL] | MIC [16] [µg/mL] | MIC [17] [µg/mL] | MIC [5, 22] [µg/mL] | MIC [6, 23] [µg/mL] | MIC [7, 24] [µg/mL] | further results
1 | CN[C@@H]1[C@@H](O)[C@@H](O[C@@H]2[C@@H](O)[C@H](O[C@H]3O[C@H](CN)CC[C@H]3N)[C@@H](N)C[C@H]2NC(=O)[C@@H](O)[C@H](N)CN)OC[C@]1(C)O [Compound 3, (2S,3R)-3,4-diamino-N-((1R,2S,3S,4R,5S)-5-amino-4-((2R,3R,6S)-3-amino-6-(aminomethyl)tetrahydro-2H-pyran-2-yloxy)-2-((2R,3R,4R,5R)-3,5-dihydroxy-5-methyl-4-(methylamino)tetrahydro-2H-pyran-2-yloxy)-3-hydroxycyclohexyl)-2-hydroxybutanamide] | 1 to 8 (≈ 1.77 to 14.1 µM) | > 8 | < 1 | < 1 | 1 to 8 (≈ 1.77 to 14.1 µM) | < 1 | < 1 | < 1 | > 8 |  |  |  |  |  |  |  |  |  |  |  | MIC [2]: 1 to 8 µg/mL (≈ 1.77 to 14.1 µM)
2 | CN[C@@H]1[C@@H](O)[C@@H](O[C@@H]2[C@@H](O)[C@H](O[C@H]3O[C@H](CNCC(O)CO)CC[C@H]3N)[C@@H](N)C[C@H]2NC(=O)[C@@H](O)CCN)OC[C@]1(C)O (stereo partly drawn) [Compound 8, (2S)-4-amino-N-((1R,2S,3S,4R,5S)-5-amino-4-((2R,3R,6S)-3-amino-6-((2,3-dihydroxypropylamino)methyl)tetrahydro-2H-pyran-2-yloxy)-2-((2R,3R,4R,5R)-3,5-dihydroxy-5-methyl-4-(methylamino)tetrahydro-2H-pyran-2-yloxy)-3-hydroxycyclohexyl)-2-hydroxybutanamide] | 1 to 8 (≈ 1.6 to 12.8 µM) | > 8 | < 1 | < 1 | < 1 | 1 to 8 (≈ 1.6 to 12.8 µM) | < 1 | < 1 | < 1 | 1 to 8 (≈ 1.6 to 12.8 µM) | < 1 | < 1 | < 1 | > 8 | 1 to 8 (≈ 1.6 to 12.8 µM) | > 8 | < 1 | < 1 | 1 to 8 (≈ 1.6 to 12.8 µM) | < 1 | MIC [2]: 1 to 8 µg/mL (≈ 1.6 to 12.8 µM)
3 | CN[C@@H]1[C@@H](O)[C@@H](O[C@@H]2[C@@H](O)[C@H](O[C@H]3O[C@H](CN)CC[C@H]3N)[C@@H](N)C[C@H]2NC(=O)[C@@H](O)[C@H](N)CO)OC[C@]1(C)O [Compound 20, (2S,3R)-3-amino-N-((1R,2S,3S,4R,5S)-5-amino-4-((2R,3R,6S)-3-amino-6-(aminomethyl)tetrahydro-2H-pyran-2-yloxy)-2-((2R,3R,4R,5R)-3,5-dihydroxy-5-methyl-4-(methylamino)tetrahydro-2H-pyran-2-yloxy)-3-hydroxycyclohexyl)-2,4-dihydroxybutanamide] |  | > 8 | < 1 | 1 to 8 (≈ 1.76 to 14.1 µM) |  | 1 to 8 (≈ 1.76 to 14.1 µM) | 1 to 8 (≈ 1.76 to 14.1 µM) |  |  | 1 to 8 (≈ 1.76 to 14.1 µM) | 1 to 8 (≈ 1.76 to 14.1 µM) | 1 to 8 (≈ 1.76 to 14.1 µM) | < 1 | > 8 | > 8 | > 8 | 1 to 8 (≈ 1.76 to 14.1 µM) | 1 to 8 (≈ 1.76 to 14.1 µM) | 1 to 8 (≈ 1.76 to 14.1 µM) | 1 to 8 (≈ 1.76 to 14.1 µM) | 
4 | NC[C@@H]1CCC(N)[C@@H](OC2C(O)C(O[C@H]3OC(CO)C(O)[C@H](N)C3O)[C@H](NC(=O)C3(O)CNNC3)C[C@@H]2N)O1 (stereo partly shown) [Compound 28] |  |  |  |  |  |  |  |  |  |  |  |  |  |  |  |  |  |  |  |  | fold increased resistance conferred by RmtB ([14]; strain expressing ribosomal RNA methylase RmtB): 8 fold
5 | CN[C@@H]1[C@@H](O)[C@@H](O[C@@H]2[C@@H](O)[C@H](O[C@H]3O[C@H](CNCCO)CC[C@H]3N)[C@@H](N)C[C@H]2NC(=O)[C@@H](O)CNN)OC[C@]1(C)O [Compound 41, (S)—N-((1R,2S,3S,4R,5S)-5-amino-4-((2R,3R,6S)-3-amino-6-((2-hydroxyethylamino)methyl)tetrahydro-2H-pyran-2-yloxy)-2-((2R,3R,4R,5R)-3,5-dihydroxy-5-methyl-4-(methylamino)tetrahydro-2H-pyran-2-yloxy)-3-hydroxycyclohexyl)-3-hydrazinyl-2-hydroxypropanamide] |  | > 8 | 1 to 8 (≈ 1.68 to 13.4 µM) | 1 to 8 (≈ 1.68 to 13.4 µM) | 1 to 8 (≈ 1.68 to 13.4 µM) | > 8 | 1 to 8 (≈ 1.68 to 13.4 µM) | 1 to 8 | > 8 | > 8 | 1 to 8 (≈ 1.68 to 13.4 µM) | 1 to 8 (≈ 1.68 to 13.4 µM) | > 8 | > 8 | > 8 | > 8 | 1 to 8 (≈ 1.68 to 13.4 µM) | 1 to 8 (≈ 1.68 to 13.4 µM) | > 8 | 1 to 8 (≈ 1.68 to 13.4 µM) | 
6 | CNC[C@@H]1CC[C@@H](N)[C@@H](O[C@H]2[C@H](O)[C@@H](O[C@H]3OC[C@](C)(O)[C@H](NC)[C@H]3O)[C@H](N)C[C@@H]2N)O1 [Micronomicin, reference compound] |  |  |  |  |  |  |  |  |  |  |  |  |  |  |  |  |  |  |  |  | Compound MIC on Bacterial Strains: Acinetobacter baumannii ACM1005 ATCC 19004 [1]: A (MIC of 1 μg/ml or less); Compound MIC on Bacterial Strains: ECM6006 aph(3′)-III [10]: B (key: A: MIC of 1 μg/ml or less; B: MIC of greater than 1 μg/ml to 8 μg/ml; MIC of greater than 8 μg/ml); Compound MIC on Bacterial Strains: ECM6011 aph(3′)-I [11]: B (key: A: MIC of 1 μg/ml or less; B: MIC of greater than 1 μg/ml to 8 μg/ml; MIC of greater than 8 μg/ml); Compound MIC on Bacterial Strains: ECM6010 ant(2″)-I [12]: C (key: A: MIC of 1 μg/ml or less; B: MIC of greater than 1 μg/ml to 8 μg/ml; MIC of greater than 8 μg/ml); Compound MIC on Bacterial Strains: ECM6009 aac(3)-II [13]: C (key: A: MIC of 1 μg/ml or less; B: MIC of greater than 1 μg/ml to 8 μg/ml; MIC of greater than 8 μg/ml); Compound MIC on Bacterial Strains: ECM6003 rmtB ([14]; Table 3): C (MIC of greater than 8 μg/ml); Compound MIC on Bacterial Strains: Acinetobacter baumannii ACM1006 acc(6′)-Ib [2]: C (MIC of greater than 8 μg/ml); Compound MIC on Bacterial Strains: EC1002 aph(3′)-IV [17]: A (key: A: MIC of 1 μg/ml or less; B: MIC of greater than 1 μg/ml to 8 μg/ml; MIC of greater than 8 μg/ml); Compound MIC on Bacterial Strains: ECM6000 ATCC 25922 ([5]; Table 3): A (MIC of 1 μg/ml or less); Compound MIC on Bacterial Strains: Escherichia coli ECM6000 ATCC 25922 ([5]; Table 4): A (MIC of 1 μg/ml or less); Compound MIC on Bacterial Strains: Escherichia coli ECM6007 aac(6′) + aph(2″) [8]: B (MIC of greater than 1 μg/ml to 8 μg/ml); Compound MIC on Bacterial Strains: Escherichia coli EC1001 acc(6′)-Ib [9]: C (MIC of greater than 8 μg/ml)
